Source: paper PMC6375640, “Genomic insights into neonicotinoid sensitivity in the solitary bee Osmia bicornis” (PLoS Genetics, 2019)
pIC50: −log10 of the molar value. ≈ marks a conversion by molar mass, not a printed value.

Key:
O. bicornis [1] = experiment: Acute contact toxicity bioassay; assay type: in vivo, Osmia bicornis; details: for LD50: acute contact, applied to dorsal thorax, thiacloprid limit test 100 μg/bee; for toxicity classification according to U.S. EPA categories: contact exposure
Description: O. bicornis cocoons were purchased from Dr Schubert Plant Breeding (Landsberg, Germany) and stored at 4°C in constant darkness. To trigger emergence cocoons were transferred to an incubator (25°C, 55% RH, L16:D8) with emerged bees fed ab libitum with Biogluc (62% sugar concentration consisting of 37.5% fructose, 34.5% glucose, 25% sucrose, 2% maltose, and 1% oligosaccharides) (Biobest), soaked into a piece of cotton wool inside a plastic dish. Males (which are usually first to emerge) were removed from cages and discarded to reduce any unnecessary stress to the females used in insecticide bioassays.
(§1) Acute contact toxicity bioassays on unmated 2 day old female O. bicornis were conducted following the OECD Honey Bee Test guidelines, with modification where necessary. Bees were anaesthetised with CO2 for 5–10 seconds to allow application of insecticide. 1 μL of technical grade imidacloprid was applied to the dorsal thorax of each bee at concentrations of 0.0001, 0.001, 0.01, 0.1, 1, and 10 μg/μL. No mortality was observed using the same concentrations of thiacloprid so a limit test of 100 μg/bee was performed. Control bees were treated with 1 μL 100% acetone. Three replicates of 10 bees were tested for each concentration. Tested individuals were placed back into cages in the incubator (25°C, 55% RH, L16:D8), with five bees per cage. In piperonyl butoxide (PBO) synergist bioassays, bees were first treated with the maximum sublethal dose (in this case 100 μg/μL) of PBO followed by insecticide one hour later. Synergist bioassays included an additional control group treated only with PBO. Mortality was assessed 48 and 72 hours after application. Probit analysis was used to calculate the LD50 values, slope, and synergism ratio (where relevant) for each insecticide (Genstat v.18 (VSNI 2015)).

O. bicornis [2] = experiment: PBO (piperonyl butoxide) synergist bioassay; assay type: in vivo, Osmia bicornis; details: with vs without PBO pre-treatment one hour before insecticide
Description: as §1

O. bicornis nAChRs = experiment: Radioligand competition binding, [3H]imidacloprid displacement from head membrane preparations; parameters: species or system Osmia bicornis; details: 576 pM radioligand, 60 min room temperature
Description: [^3H]imidacloprid (specific activity 1.406 GBq μmol^−1) displacement studies were conducted using membrane preparations isolated from frozen (−80°C) O. bicornis heads, following previously published protocols. Briefly, bee heads weighing 10 g were homogenized in 200 ml ice-cold 0.1 M potassium phosphate buffer, pH 7.4 containing 95 mM sucrose using a motor-driven Ultra Turrax blender. […] Assays were performed in a 96-well microtitre plate with bonded GF/C filter membrane (Packard UniFilter-96, GF/C) and consisted of 200 μl of homogenate (0.48 mg protein), 25 μl of [^3H]imidacloprid (576 pM) and 25 μl of competing ligand. Ligand concentrations used ranged from 0.001 to 10 000 nM and were tested in triplicate per competition assay. The assay was started by the addition of homogenate and incubated for 60 min at room temperature. Bound [^3H]imidacloprid was quantified by filtration into a second 96-well filter plate (conditioned with ice-cold 100 mM potassium phosphate buffer, pH 7.4 (including BSA 5 g litre−1)) using a commercial cell harvester (Brandel). […] Each well was then loaded with 25 μl of scintillation cocktail (Microszint-O-Filtercount, Packard) and the plate counted in a Topcount scintillation counter (Packard). Non-specific binding was determined using a final concentration of 10 μM unlabelled imidacloprid. […]

O. bicornis cuticle = experiment: Cuticular penetration of radiolabelled insecticide (pharmacokinetic study); assay type: in vivo, Osmia bicornis; details: 24 h after application to dorsal thorax
Description: Bees were anaesthetised with CO2 for 5–10 seconds to allow application of insecticide. 5,000 ppm of [^14C]imidacloprid or [^14C]thiacloprid was applied to the dorsal thorax of each bee using a Hamilton repeating dispenser. Three replicates of five bees were placed into cages and fed a 50% sucrose solution from vertically hanging 2 ml syringes. Control bees were treated with acetone. Radiolabelled insecticide was rinsed off of each group of bees at set time intervals (0, 2, 4 and 24 hours after application) with acetonitrile water (90:10) three times. The […] bees were then individually combusted at 900°C in an Ox 120c oxidizer (Harvey Instruments Co., USA) followed by liquid scintillation counting of the released ^14CO2 in an alkaline scintillation cocktail (Ultima Gold, PerkinElmer) using a liquid scintillation analyser (Perkin Elmer Tri-Carb 2910 TR). The levels of excreted [^14C]imidacloprid or [^14C]thiacloprid, and/or metabolites, were measured by wiping cages with filter papers dipped in acetone and 0.5 mL aliquots of cuticular rinse or filter papers were added to 3 mL of scintillation fluid cocktail and the radioactivity was quantified by liquid scintillation analysis as above. An unpaired t-test was used to compare the penetration of the two compounds at each time point.

CYP9BU1 [3] = experiment: Metabolism assay with recombinant P450/CPR microsomes, UPLC-MS/MS; details: for metabolism to 5-hydroxy form: 25 μM insecticide, 5 pmol P450, NADPH, 1 hour, 30°C
Description: (§2) O. bicornis P450 genes and house fly NADPH-dependent cytochrome P450 reductase (CPR) (GenBank accession no. Q07994) genes were codon optimised for expression in lepidopteran cell lines, synthesized (Geneart, CA, USA) and inserted into the pDEST8 expression vector (Invitrogen). The PFastbac1 vector with no inserted DNA was used to produce a control virus. The recombinant baculovirus DNA was constructed and transfected into Trichoplusia ni (High five cells, Thermo Fisher) using the Bac-to-Bac baculovirus expression system (Invitrogen) according to the manufacturer’s instructions. The titre of the recombinant virus was determined following protocols of the supplier. High Five cells grown to a density of 2 x 10^6 cells ml^-1 were co-infected with recombinant baculoviruses containing each bee P450 and CPR with a range of MOI (multiplicity of infection) ratios to identify the optimal conditions. Control cells were co-infected with the baculovirus containing vector with no insert (ctrl-virus) and the recombinant baculovirus expressing CPR using the same MOI ratios. Ferric citrate and δ-aminolevulinic acid hydrochloride were added to a final concentration of 0.1 mM at the time of infection and 24 h after infection to compensate the low levels of endogenous heme in the insect cells. After 48 h, cells were harvested, washed with PBS, and microsomes of the membrane fraction prepared according to standard procedures and stored at −80°C [41]. Briefly, pellets were homogenised for 30 s in 0.1 M Na/K-phosphate buffer, pH 7.4 containing 1 mM EDTA and DTT and 200 mM sucrose using a Fastprep (MP Biomedicals), filtered through miracloth and centrifuged for 10 min at 680g at 4°C. The supernatant was then centrifuged for 1 h at 100,000g at 4°C, with the pellet subsequently resuspended in 0.1M Na/K-phosphate buffer pH 7.6 containing 1 mM EDTA and DTT and 10% glycerol using a Dounce tissue grinder. P450 expression and functionality was estimated by measuring CO-difference spectra in reduced samples using a Specord 200 Plus Spectrophotometer (Analytik Jena) and scanning from 500 nm to 400 nm. The protein content of samples was determined using Bradford reagent (Sigma) and bovine serum albumin (BSA) as a reference.
(§3) Metabolism of thiacloprid and imidacloprid was assessed by incubating recombinant P450/CPR (5 pmol/well) or control virus/CPR (5 pmol/well) with each insecticide (25 μM) in the presence of an NADPH regeneration system at 30±1°C, shaking, for 1 hour. […] The peak integrals were calibrated externally against a standard calibration curve.

CYP9BU2 [4] = experiment: as above; details: for metabolism to 5-hydroxy form: 25 μM insecticide, 5 pmol P450, NADPH, 1 hour, 30°C
Description: as §2, §3

in vivo = details: in vivo; Control strain
Description: (§4) CYP9BU1 and CYP9BU2 were codon optimised for D. melanogaster expression and cloned into the pUASTattB plasmid (GenBank: EF362409.1). These constructs were used to create transgenic fly lines, which were then tested in insecticide bioassays against imidacloprid and thiacloprid, as described previously.

[5] = system: Drosophila melanogaster control line; experiment: in vivo; details: for RR (resistance ratio): Control strain (reference); for Slope (+/- SE): log-dose probit mortality, Control strain
Description: as §4

CYP9BU1 [6] = experiment: Insecticide bioassay on transgenic flies expressing CYP9BU1; assay type: in vivo, Drosophila melanogaster; details: transgenic line expressing CYP9BU1, Drosophila melanogaster, in vivo; CYP9BU1 strain
Description: as §4

[7] = system: transgenic Drosophila melanogaster expressing CYP9BU1; experiment: as above; assay type: in vivo; details: for RR (resistance ratio): CYP9BU1 strain vs control line; for sensitivity relative to control flies (less sensitive): flies expressing CYP9BU1 vs control flies without transgene
Description: as §4

CYP9BU2 [8] = experiment: Insecticide bioassay on transgenic flies expressing CYP9BU2; assay type: in vivo, Drosophila melanogaster; details: transgenic line expressing CYP9BU2, Drosophila melanogaster, in vivo; CYP9BU2 strain
Description: as §4

[9] = system: transgenic Drosophila melanogaster expressing CYP9BU2; experiment: as above; assay type: in vivo; details: for RR (resistance ratio): CYP9BU2 strain vs control line; for sensitivity relative to control flies: flies expressing CYP9BU2 vs control flies without transgene
Description: as §4

[10] = system: adult female O. bicornis gene expression; experiment: RNAseq of bees after sublethal oral neonicotinoid exposure (P450 induction); assay type: in vivo, Osmia bicornis; details: for induction of P450 expression: 24 h after exposure to LD10; for number of genes significantly upregulated: 24 h after exposure to LD10, corrected p <0.05 vs solvent control
Description: (§5) To examine if P450 expression in O. bicornis is induced by exposure to sublethal concentrations of neonicotinoids, imidacloprid and thiacloprid were dissolved in acetone to the highest concentration possible, before being diluted to the LD10 of imidacloprid (0.0001 μg/bee) and thiacloprid (0.01 μg/bee) with 50% sucrose (w/v) in order to limit the amount of acetone consumed by bees. Prior to commencing oral bioassays bees underwent a 24 hour ‘training’ period in the Nicot cages to enable them to learn to feed from the syringes. This was followed by a 16h starvation period to encourage subsequent feeding. 15μL of the insecticide/sucrose solution was supplied orally to the bees in disposable plastic syringes. Control bees were fed 15μL of a sucrose solution containing the same volume of acetone used to make up the insecticide/sucrose solutions. When all of the solution had been consumed the bees were fed ab libitum with a 50% sucrose solution for 24 h. After this period for each condition four replicates comprising 5 bees per replicate were snap frozen in liquid nitrogen and RNA extracted from each replicate as above. RNA was used as a template for the generation of barcoded libraries (TrueSeq RNA library preparation, Illumina) which were sequenced across two lanes of an Illumina HiSeq2500 flowcell (100 bp paired end reads). Sequencing was carried out by Earlham Institute, Norwich, UK. To identify genes differentially expressed between control and the treatment the Tuxedo workflow was used to map with TopHat against the annotated reference genome, to estimate gene expression with Cufflinks and test for differential expression with Cuffdiff.

O. bicornis [11] = experiment: Sublethal dose (LD10) used for oral exposure; assay type: in vivo, Osmia bicornis; details: used as sublethal dose, supplied orally in 50% sucrose
Description: as §5, with “To identify genes differentially expressed between control and the treatment the Tuxedo workflow was used to map with TopHat against the annotated reference genome, to estimate gene expression with Cufflinks and test for differential expression with Cuffdiff.” left out

[12] = production of hydroxy metabolite per pmol P450

Compound: N#C/N=C1\SCCN1Cc1ccc(Cl)nc1 [thiacloprid]
- mortality (O. bicornis [1]; 1 μL at 0.0001-10 μg/μL, contact): No mortality
- LD50 (O. bicornis [1]; adult female bees): > 100 μg/bee
- toxicity classification according to U.S. EPA categories (O. bicornis [1]): practically non-toxic
- change in sensitivity after PBO pre-treatment (O. bicornis [2]): > 7 fold
- pIC50 (O. bicornis nAChRs): 8.62
- final uptake through the cuticle (O. bicornis cuticle): 28%
- metabolism to 5-hydroxy form (CYP9BU1 [3]): metabolise these compounds to their hydroxylated forms
- efficiency of metabolism relative to imidacloprid (CYP9BU1 [3]; [12]): significantly greater efficiency than imidacloprid
- metabolism to 5-hydroxy form (CYP9BU2 [4]): metabolise these compounds to their hydroxylated forms
- efficiency of metabolism relative to imidacloprid (CYP9BU2 [4]; [12]): significantly greater efficiency than imidacloprid
- LC50 (in vivo): 17 µg/mL (≈ 67.4 µM)
- RR (resistance ratio) [5]: 1
- Slope (+/- SE) [5]: 1.2 +/- 0.14
- LC50 (CYP9BU1 [6]): 65.7 µg/mL (≈ 260 µM)
- RR (resistance ratio) [7]: 3.8
- sensitivity relative to control flies (less sensitive) [7]: ~ 4 times
- LC50 (CYP9BU2 [8]): 17.5 µg/mL (≈ 69.2 µM)
- RR (resistance ratio) [9]: 1.1
- sensitivity relative to control flies [9]: no significant resistance
- induction of P450 expression [10]: no P450 showed a significant increase in expression
- number of genes significantly upregulated [10]: 16 genes
- LD10 (O. bicornis [11]): 0.01 μg/bee

Compound: O=[N+]([O-])NC1=NCCN1Cc1ccc(Cl)nc1 [imidacloprid]
- LD50 (O. bicornis [1]; adult female bees): 0.046 μg/bee
- fold more sensitive to imidacloprid than thiacloprid (O. bicornis [1]; adult female bees, ratio of contact LD50): > 2,000 fold
- toxicity classification according to U.S. EPA categories (O. bicornis [1]): highly toxic
- change in sensitivity after PBO pre-treatment (O. bicornis [2]): No significant difference
- pIC50 (O. bicornis nAChRs): 8.08
- final uptake through the cuticle (O. bicornis cuticle): 27%
- metabolism to 5-hydroxy form (CYP9BU1 [3]): metabolise these compounds to their hydroxylated forms
- metabolism to 5-hydroxy form (CYP9BU2 [4]): metabolise these compounds to their hydroxylated forms
- LC50 (in vivo): 165 µg/mL (≈ 645 µM)
- RR (resistance ratio) [5]: 1
- Slope (+/- SE) [5]: 1.7 +/- 0.12
- LC50 (CYP9BU1 [6]): 85.9 µg/mL (≈ 336 µM)
- RR (resistance ratio) [7]: 0.5
- sensitivity relative to control flies (less sensitive) [7]: no significant differences in sensitivity
- Slope (+/- SE) ([7]; log-dose probit mortality, CYP9BU1 strain): 1.3 +/- 0.13
- LC50 (CYP9BU2 [8]): 135 µg/mL (≈ 530 µM)
- RR (resistance ratio) [9]: 0.8
- sensitivity relative to control flies [9]: no significant differences in sensitivity
- Slope (+/- SE) ([9]; log-dose probit mortality, CYP9BU2 strain): 1.5 +/- 0.14
- induction of P450 expression [10]: no P450 showed a significant increase in expression
- number of genes significantly upregulated [10]: 27 genes
- LD10 (O. bicornis [11]): 0.0001 μg/bee
